{"source": "patent US9249035B2", "about": "“Method and system for treating water in order to reduce its endocrine disrupting effect by means of a living organism” (Veolia Water Solutions & Technologies Support, priority 2012, dated 2016)", "test_system": "larvae of genetically modified amphibians", "experiment": "Calibration test: fluorescence of genetically modified amphibian larvae exposed to growing estrogen concentrations", "assay_type": "in vivo", "settings": "FIG. 3", "protocol": "A test of calibration of a plant to implement the method according to the invention was carried in order to determine an acceptable threshold value of endocrine disruptors in the treated water. This calibration test also makes it possible to distinguish the natural fluorescence of water and the basal fluorescence of genetically modified aquatic organisms, related to the normal functioning of the genes, from the fluorescence emitted by the same organisms when they detect the presence of an endocrine disrupting and/or toxic and/or genotoxic pollutant. The fluorescence of water and the basal fluorescence of the genetically modified aquatic organisms can be likened to background noise which must be evaluated in order to deduct it from the signal measured in the presence of a pollutant.\nThe disruptor chosen for example is estrogen which is found in urban wastewater. […] These concentrations have been related to measured intensities of fluorescence.\nFrom a reading of this graph, it can observed that amphibian larvae are sensitive to very low doses of estrogen such as ethinyl-oestradiol (EE2) (2.5×10^−10 mol/L) and emit a detectable and quantifiable intensity of fluorescence. […] This concentration is related with the measured intensity of fluorescence. […]", "data": [{"substance": "ethinyl-oestradiol", "values": [{"measurement": "estrogen concentration leading to a physiological reversal", "value": "≥ 2×10^−9 mol/L"}, {"measurement": "very low dose at which amphibian larvae emit a detectable and quantifiable intensity of fluorescence", "value": "2.5e-10", "unit": "mol/L"}]}]}
